Test results from patent US20230095836A1, “SUBSTITUTED 5,6-DIPHENYL-3(2H)-PYRIDAZINONES FOR USE AS FUNGICIDES” (FMC Corporation, priority 2020, published 2023).
One block for each molecule: values may come before it.

What was measured:
Zymoseptoria tritici = assay: Test A: test solution sprayed on wheat seedlings, inoculated next day with Zymoseptoria tritici (wheat leaf blotch); disease rating (100 = 100% disease control, 0 = no control; dash = not tested); type: in vivo
Summary of the method: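 Wheat seedlings sprayed to run-off with test solution, inoculated next day with Z. tritici spores, held 48 h at 24° C in saturated atmosphere, then 17 days at 20° C before rating. Scores are % disease control relative to controls (100 = full control, 0 = none).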

[1] = tested on: Puccinia recondita f. sp. tritici; assay: Test B: test solution sprayed on wheat seedlings, inoculated next day with Puccinia recondita f. sp. tritici (wheat leaf rust); disease rating (100 = 100% disease control, 0 = no control; dash = not tested); type: in vivo
Description: The resulting test suspensions were then used in Tests A-F. The test solution was sprayed to the point of run-off on wheat seedlings. […] A rating of 100 indicates 100% disease control and a rating of 0 indicates no disease control (relative to the controls). A dash (—) indicates the compound was not tested.

[2] = tested on: Blumeria graminis f. sp. tritici; assay: Test C: test suspension sprayed on wheat seedlings, inoculated next day with Blumeria graminis f. sp. tritici (wheat powdery mildew); visual disease rating (100 = 100% disease control, 0 = no control; dash = not tested); type: in vivo
Summary of the method: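 Wheat seedlings were sprayed to run-off with test suspension, then dusted next day with Blumeria graminis f. sp. tritici spores. After 8 days at 20 °C in a growth chamber, disease was rated visually as percent control relative to untreated controls.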

Phakopsora pachyrhizi = assay: Test D: test solution sprayed on soybean seedlings, inoculated next day with Phakopsora pachyrhizi (Asian soybean rust); visual disease rating (100 = 100% disease control, 0 = no control; dash = not tested); type: in vivo
Summary of the method: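 Compounds predissolved in acetone (3% of final volume), suspended at ppm concentrations in 50/50 acetone/water with 250 ppm PEG400, sprayed to run-off on soybean seedlings. Inoculated next day with spores, 24 h saturated atmosphere at 22 °C, then 8 days growth chamber at 22 °C; visual rating, 100 = full control.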

Botrytis cinerea = assay: Test E: test suspension sprayed on tomato seedlings, inoculated next day with Botrytis cinerea (tomato Botrytis); visual disease rating (100 = 100% disease control, 0 = no control; dash = not tested); type: in vivo
Summary of the method: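 Tomato seedlings were sprayed to run-off and inoculated next day with Botrytis cinerea spores. They were held 48 h at 20° C in saturated humidity, then 3 days at 24° C. Disease control was rated visually against controls (100 = full, 0 = none).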

Alternaria solani = assay: Test F: test suspension sprayed on tomato seedlings, inoculated next day with Alternaria solani (tomato early blight); visual disease rating (100 = 100% disease control, 0 = no control; dash = not tested); type: in vivo
Summary of the method: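 Tomato seedlings sprayed to run-off with test suspension, inoculated next day with A. solani spores, held saturated at 27° C. for 48 h, then 20° C. for 3 days. Disease visually rated as % control relative to untreated controls.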

melting point: 130 to 133 °C
Structure (SMILES): COc1cc(OC)c(Cl)c(-c2nn(C)c(=O)c(OC)c2-c2ccc(F)cc2Cl)c1 [Compound 80, 6-(2-chloro-3,5-dimethoxyphenyl)-5-(2-chloro-4-fluorophenyl)-4-methoxy-2-methyl-3(2H)-pyridazinone]
pest or weed control at 50 ppm (Zymoseptoria tritici; 50 ppm): 100% | pest or weed control at 50 ppm ([1]; 50 ppm): 100% | pest or weed control at 50 ppm ([2]; 50 ppm): 100% | pest or weed control at 50 ppm (Phakopsora pachyrhizi; 50 ppm): 100% | pest or weed control at 50 ppm (Botrytis cinerea; 50 ppm): 99% | pest or weed control at 50 ppm (Alternaria solani; 50 ppm): 100%

melting point: 126 to 129 °C
Structure (SMILES): Cc1c(-c2ccc(F)cc2Cl)c(-c2ccc(F)cc2Cl)nn(C)c1=O [Compound 44, 5,6-bis(2-chloro-4-fluorophenyl)-2,4-dimethyl-3(2H)-pyridazinone]
pest or weed control at 50 ppm (Zymoseptoria tritici; 50 ppm): 100% | pest or weed control at 50 ppm ([1]; 50 ppm): 100% | pest or weed control at 50 ppm ([2]; 50 ppm): 100% | pest or weed control at 50 ppm (Phakopsora pachyrhizi; 50 ppm): 100% | pest or weed control at 50 ppm (Botrytis cinerea; 50 ppm): 93% | pest or weed control at 50 ppm (Alternaria solani; 50 ppm): 100%

melting point: 192 to 196 °C
Structure (SMILES): COc1cc(OC)c(Cl)c(-c2nn(C)c(=O)c(Cl)c2-c2c(F)cccc2F)c1 [Compound 35, 4-chloro-6-(2-chloro-3,5-dimethoxyphenyl)-5-(2,6-difluorophenyl)-2-methyl-3(2H)-pyridazinone]
pest or weed control at 250 ppm (Zymoseptoria tritici; 250 ppm): 100% | pest or weed control at 250 ppm ([1]; 250 ppm): 100% | pest or weed control at 250 ppm ([2]; 250 ppm): 100% | pest or weed control at 250 ppm (Phakopsora pachyrhizi; 250 ppm): 100% | pest or weed control at 250 ppm (Botrytis cinerea; 250 ppm): 99% | pest or weed control at 250 ppm (Alternaria solani; 250 ppm): 99%

Structure (SMILES): COc1cc(OC)c(Br)c(-c2nn(C)c(=O)c(C)c2-c2ccc(F)cc2Cl)c1 [Compound 64, 6-(2-bromo-3,5-dimethoxyphenyl)-5-(2-chloro-4-fluorophenyl)-2,4-dimethyl-3(2H)-pyridazinone]
pest or weed control at 50 ppm (Zymoseptoria tritici; 50 ppm): 100% | pest or weed control at 50 ppm ([1]; 50 ppm): 100% | pest or weed control at 50 ppm ([2]; 50 ppm): 100% | pest or weed control at 50 ppm (Phakopsora pachyrhizi; 50 ppm): 100% | pest or weed control at 50 ppm (Botrytis cinerea; 50 ppm): 100% | pest or weed control at 50 ppm (Alternaria solani; 50 ppm): 100%

Structure (SMILES): COc1cc(-c2nn(C)c(=O)cc2-c2ccc(F)cc2Cl)cc(OC)c1Cl [Compound 203]
Test A disease control rating (Zymoseptoria tritici; 50 ppm): 0% | Test B disease control rating ([1]; 50 ppm): 0% | Test C disease control rating ([2]; 50 ppm): 0% | Test D disease control rating (Phakopsora pachyrhizi; 50 ppm): 0% | Test E disease control rating (Botrytis cinerea; 50 ppm): 31% | Test F disease control rating (Alternaria solani; 50 ppm): 0%

Structure (SMILES): Cn1nc(-c2cc(F)ccc2Br)c(-c2ccc(F)cc2Cl)c(Cl)c1=O [Compound 119]
Test A disease control rating (Zymoseptoria tritici; 50 ppm): 100% | Test B disease control rating ([1]; 50 ppm): 100% | Test C disease control rating ([2]; 50 ppm): 100% | Test D disease control rating (Phakopsora pachyrhizi; 50 ppm): 99% | Test E disease control rating (Botrytis cinerea; 50 ppm): 96% | Test F disease control rating (Alternaria solani; 50 ppm): 100%

Structure (SMILES): Cc1c(-c2ccc(F)cc2Cl)c(-c2cc(F)ccc2Cl)nn(C)c1=O [Compound 128]
Test A disease control rating (Zymoseptoria tritici; 50 ppm): 100% | Test B disease control rating ([1]; 50 ppm): 100% | Test C disease control rating ([2]; 50 ppm): 100% | Test D disease control rating (Phakopsora pachyrhizi; 50 ppm): 99% | Test E disease control rating (Botrytis cinerea; 50 ppm): 98% | Test F disease control rating (Alternaria solani; 50 ppm): 100%

Structure (SMILES): COc1cc(F)cc(-c2nn(C)c(=O)cc2-c2c(F)cccc2F)c1 [Compound 27]
Test A disease control rating (Zymoseptoria tritici; 250 ppm): 99% | Test B disease control rating ([1]; 250 ppm): 99% | Test C disease control rating ([2]; 250 ppm): 97% | Test D disease control rating (Phakopsora pachyrhizi; 250 ppm): 56% | Test E disease control rating (Botrytis cinerea; 250 ppm): 96% | Test F disease control rating (Alternaria solani; 250 ppm): 0%

Structure (SMILES): COc1cc(OC)cc(-c2nn(C)c(=O)cc2-c2ccc(F)cc2Cl)c1 [Compound 18]
Test A disease control rating (Zymoseptoria tritici; 250 ppm): 99% | Test B disease control rating ([1]; 250 ppm): 98% | Test C disease control rating ([2]; 250 ppm): 96% | Test D disease control rating (Phakopsora pachyrhizi; 250 ppm): 0% | Test E disease control rating (Botrytis cinerea; 250 ppm): 99% | Test F disease control rating (Alternaria solani; 250 ppm): 0%

Structure (SMILES): Cn1nc(-c2ccc(F)cc2Cl)c(-c2ccc(F)cc2Cl)cc1=O [Compound 70]
Test A disease control rating (Zymoseptoria tritici; 50 ppm): 93% | Test B disease control rating ([1]; 50 ppm): 41% | Test C disease control rating ([2]; 50 ppm): 76% | Test D disease control rating (Phakopsora pachyrhizi; 50 ppm): 52% | Test E disease control rating (Botrytis cinerea; 50 ppm): 98% | Test F disease control rating (Alternaria solani; 50 ppm): 0%

Structure (SMILES): COc1ccc(C)c(-c2nn(C)c(=O)c(C)c2-c2ccc(F)cc2Cl)c1 [Compound 135]
Test A disease control rating (Zymoseptoria tritici; 50 ppm): 100% | Test B disease control rating ([1]; 50 ppm): 100% | Test C disease control rating ([2]; 50 ppm): 100% | Test D disease control rating (Phakopsora pachyrhizi; 50 ppm): 100% | Test E disease control rating (Botrytis cinerea; 50 ppm): 97% | Test F disease control rating (Alternaria solani; 50 ppm): 100%

Structure (SMILES): CCn1nc(-c2cc(OC)cc(OC)c2Cl)c(-c2c(F)cccc2F)c(Cl)c1=O [Compound 9]
Test A disease control rating (Zymoseptoria tritici; 50 ppm): 100% | Test B disease control rating ([1]; 50 ppm): 100% | Test C disease control rating ([2]; 50 ppm): 99% | Test D disease control rating (Phakopsora pachyrhizi; 50 ppm): 99% | Test E disease control rating (Botrytis cinerea; 50 ppm): 99% | Test F disease control rating (Alternaria solani; 50 ppm): 91%

Structure (SMILES): COc1cc(C#N)cc(-c2nn(C)c(=O)cc2-c2c(F)cccc2F)c1 [Compound 71]
Test A disease control rating (Zymoseptoria tritici; 50 ppm): 8% | Test B disease control rating ([1]; 50 ppm): 0% | Test C disease control rating ([2]; 50 ppm): 0% | Test D disease control rating (Phakopsora pachyrhizi; 50 ppm): 0% | Test E disease control rating (Botrytis cinerea; 50 ppm): 16% | Test F disease control rating (Alternaria solani; 50 ppm): 0%

Structure (SMILES): Cn1nc(-c2ccc(F)cc2Cl)c(-c2ccc(F)cc2Cl)c(CCl)c1=O [Compound 170]
Test A disease control rating (Zymoseptoria tritici; 50 ppm): 99% | Test B disease control rating ([1]; 50 ppm): 89% | Test C disease control rating ([2]; 50 ppm): 76% | Test D disease control rating (Phakopsora pachyrhizi; 50 ppm): 0% | Test E disease control rating (Botrytis cinerea; 50 ppm): 51% | Test F disease control rating (Alternaria solani; 50 ppm): 80%

Structure (SMILES): COc1cc(OC)c(Cl)c(-c2nn(C)c(=O)c(C)c2-c2ccc(F)cc2Cl)c1Cl [Compound 47]
Test A disease control rating (Zymoseptoria tritici; 50 ppm): 52% | Test B disease control rating ([1]; 50 ppm): 68% | Test C disease control rating ([2]; 50 ppm): 43% | Test D disease control rating (Phakopsora pachyrhizi; 50 ppm): 0% | Test E disease control rating (Botrytis cinerea; 50 ppm): 91% | Test F disease control rating (Alternaria solani; 50 ppm): 0%

Structure (SMILES): COc1cc(OC)cc(-c2nn(C)c(=O)c(Br)c2-c2ccc(F)cc2Cl)c1 [Compound 67]
Test A disease control rating (Zymoseptoria tritici; 50 ppm): 99% | Test B disease control rating ([1]; 50 ppm): 100% | Test C disease control rating ([2]; 50 ppm): 95% | Test D disease control rating (Phakopsora pachyrhizi; 50 ppm): 98% | Test E disease control rating (Botrytis cinerea; 50 ppm): 99% | Test F disease control rating (Alternaria solani; 50 ppm): 99%

Structure (SMILES): Cn1nc(-c2ccc(F)cc2Cl)c(-c2ccc(F)cc2Cl)c(CO)c1=O [Compound 172]
Test A disease control rating (Zymoseptoria tritici; 250 ppm): 79% | Test B disease control rating ([1]; 250 ppm): 92% | Test C disease control rating ([2]; 250 ppm): 87% | Test D disease control rating (Phakopsora pachyrhizi; 250 ppm): 78% | Test E disease control rating (Botrytis cinerea; 250 ppm): 83% | Test F disease control rating (Alternaria solani; 250 ppm): 0%

Structure (SMILES): CCc1c(-c2ccc(F)cc2Cl)c(-c2ccc(F)cc2Cl)nn(C)c1=O [Compound 167]
Test A disease control rating (Zymoseptoria tritici; 50 ppm): 100% | Test B disease control rating ([1]; 50 ppm): 100% | Test C disease control rating ([2]; 50 ppm): 100% | Test D disease control rating (Phakopsora pachyrhizi; 50 ppm): 0% | Test E disease control rating (Botrytis cinerea; 50 ppm): 86% | Test F disease control rating (Alternaria solani; 50 ppm): 100%

Structure (SMILES): CCOC(=O)c1c(-c2ccc(F)cc2Cl)c(-c2ccc(F)cc2Cl)nn(C)c1=O [Compound 143]
Test A disease control rating (Zymoseptoria tritici; 250 ppm): 6% | Test B disease control rating ([1]; 250 ppm): 80% | Test C disease control rating ([2]; 250 ppm): 100% | Test D disease control rating (Phakopsora pachyrhizi; 250 ppm): 0% | Test E disease control rating (Botrytis cinerea; 250 ppm): 0% | Test F disease control rating (Alternaria solani; 250 ppm): 0%

Structure (SMILES): COc1ccc(Cl)c(-c2nn(C)c(=O)c(OC)c2-c2c(F)cccc2F)c1 [Compound 50]
Test A disease control rating (Zymoseptoria tritici; 50 ppm): 100% | Test B disease control rating ([1]; 50 ppm): 98% | Test C disease control rating ([2]; 50 ppm): 99% | Test D disease control rating (Phakopsora pachyrhizi; 50 ppm): 36% | Test E disease control rating (Botrytis cinerea; 50 ppm): 96% | Test F disease control rating (Alternaria solani; 50 ppm): 100%

Structure (SMILES): COc1cc(F)cc(-c2nn(C)c(=O)c(Cl)c2-c2ccc(F)cc2Cl)c1 [Compound 76]
Test A disease control rating (Zymoseptoria tritici; 50 ppm): 100% | Test B disease control rating ([1]; 50 ppm): 100% | Test C disease control rating ([2]; 50 ppm): 99% | Test D disease control rating (Phakopsora pachyrhizi; 50 ppm): 99% | Test E disease control rating (Botrytis cinerea; 50 ppm): 97% | Test F disease control rating (Alternaria solani; 50 ppm): 99%
